From patent publication US20100196343A1, “COMPOSITIONS, METHODS, DEVICES, AND SYSTEMS FOR SKIN CARE” (priority 2008, published 2010)

System: skin blemishes
Experiment: clinical trial: blue light, white light or 4% BPO composition, number of skin blemishes
Format: in vivo
Settings: subjects (n=55 in trial)
Source text: In another clinical trial, subjects (n=55) were exposed to (a) blue light], (b) white light, or (c) a composition comprising 4% (w/w) benzyol peroxide (BPO). Subjects were re-evaluated weekly during each treatment regime and results are illustrated in FIG. 25. The number of skin blemishes observed on subjects who received blue light therapy dropped by over 35% in the first week and by 55% in the second week. By comparison, the number of skin blemishes observe on subjects who received BPO dropped by just over 20% by the second week and by only 45% after eleven weeks.

For O=C(OOC(=O)c1ccccc1)c1ccccc1 [BPO, benzyol peroxide], which “number of skin blemishes dropped” value (after eleven weeks) is on record?
The value was 45%.

What about the “number of skin blemishes dropped” value (by the second week) of the same compound?
Its value is “over 20%”.
